Laboratory results taken from article PMC4760952, “Structural basis of interprotein electron transfer in bacterial sulfite oxidation” (eLife, 2015).

Target: T1, SorT (Sinorhizobium meliloti, UniProt Q92M24)
T1 construct: gene SMc04049; recombinant periplasmic SorT, purified as in Low et al. 2011; homodimer; 33 N-terminal residues not seen in the complex crystal
T1 sequence (Q92M24 32-399): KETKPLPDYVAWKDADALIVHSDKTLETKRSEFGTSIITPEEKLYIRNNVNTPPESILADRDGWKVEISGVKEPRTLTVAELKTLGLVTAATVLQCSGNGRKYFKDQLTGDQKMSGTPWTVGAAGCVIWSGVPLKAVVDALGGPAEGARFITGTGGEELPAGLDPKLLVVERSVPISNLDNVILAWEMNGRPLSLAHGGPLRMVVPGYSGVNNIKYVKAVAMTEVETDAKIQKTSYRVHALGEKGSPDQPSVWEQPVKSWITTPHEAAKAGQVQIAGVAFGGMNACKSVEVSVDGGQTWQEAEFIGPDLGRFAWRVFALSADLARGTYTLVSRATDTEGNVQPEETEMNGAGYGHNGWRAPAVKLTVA
Test: sulfite dehydrogenase assay, SorU reduction at […] nm
Format: biochemical
Details: electron acceptor SorU

## O=S(O)O [sulfite]
  sulfite dehydrogenase assay, SorU reduction at 550 nm: Sulfite dehydrogenase enzyme assays were carried out as described previously
